Consider 61 molecules from ChEMBL document CHEMBL1201862, “PubChem BioAssay data set” (2004).

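Results reflect a 48-hour exposure of cells in 96-well plates to compound at five concentrations. GI50 marks 50% less growth.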 Active and inactive are the calls of the source. Cut-off read from the data, not from the text of the source: active = GI50 up to about 1.1 µM and inactive = higher.

What all share (assay): growth of human tumour cells (NCI), 48 h
Test [1] deals with Hs-578T.
For test [2], the system named is DLD-1.
The subject of test [3] is M19-MEL.
Test [4] relates to XF498.
For test [5], the system named is DMS-273.
The test system of test [6] is HOP-18.
Test [7] deals with SNB-78.
Test [8] relates to DMS-114.

As to `Clc1ccc(OCC2NC3CCC2CC3)cn1` (stereo not given), the GI50 in test [1] was 57.1 µM (inactive).
`CN(C)/N=C(\CCN1CCCC1)CC(c1ccccc1)c1c(O)c2ccccc2oc1=O` (stereo not given): the GI50 in test [2], in test [3] and in test [4] was > 100 µM (inactive) throughout.
As to `CCN(CC)C(=S)SS(=O)(=O)c1ccc(NC(C)=O)cc1`, the GI50 in test [1] is 45 µM (inactive).
On to `CN(C)CCNC1=Nc2ccccc2C(=S)N2CSCC12` (stereo not given), for which, in test [1], the GI50 was > 100 µM (inactive).
Regarding `Clc1ccc(-c2nc(-c3ccc(Cl)cc3)[s+]s2)cc1`, the GI50 in test [1] is 46.7 µM (inactive).
On the same count and under the same terms, to `CC(C(O)c1ccccc1)C(O)(C(F)(F)F)C(F)(F)F` (stereo not given) belongs > 100 µM (inactive); to `O=C(NCCCNCCN1C(=O)c2cccc3cc([N+](=O)[O-])cc(c23)C1=O)c1cc(-c2ccccc2)nc2ccccc12`, 3.41 µM (inactive).
As for `CC(NC1CCCC[C@@H]1O)c1ccccc1` (stereo not given in full), the GI50 in test [2], in test [5], in test [6], in test [3], in test [7] and in test [4] was > 100 µM (inactive) throughout.
Take `CCOC1=CP(=O)(OCC)CC(C)=C1Cl` (stereo not given): the GI50 in test [2] was > 100 µM (inactive); in test [8], > 100 µM (inactive); in test [5] it was 15.7 µM (inactive); in test [3] it was > 100 µM (inactive); in test [7], > 100 µM (inactive).
On to `COCCNc1cncc(C(N)=O)c1`, for which the GI50 in test [1] was > 100 µM (inactive).
For the molecule `Cc1cc(Cl)cc2c1NC(=O)C2(O)C(C)C(=O)c1ccc(Cl)cc1` (stereo not given), the GI50 was > 61.2 µM (inactive) in test [2]; 37.3 µM (inactive) in test [8]; > 83.2 µM (inactive) in test [5]; > 92.9 µM (inactive) in test [6]; 12.8 µM (inactive) in test [3]; > 66.2 µM (inactive) in test [7]. For the same molecule, in test [4], the GI50 was 42.6 µM (inactive).
Regarding `O=C(O)COc1ccccc1C(=O)Nc1ccccc1`, the GI50 in test [2], in test [5], in test [3], in test [7] and in test [4] was > 100 µM (inactive) in each case.
As to `Cc1ccc(F)cc1NC(=O)O/N=C(\Cl)C(C)C`, in test [1], the GI50 is 22.5 µM (inactive).
As for `CC1OC=CC(=O)C1O` (stereo not given), the GI50 in test [2], in test [3], in test [7] and in test [4] was > 100 µM (inactive) each time.
With `O=C1c2ccccc2C(=O)N1CCSCC(CO)SCCN1C(=O)c2ccccc2C1=O` (stereo not given), the GI50 in test [1] is > 100 µM (inactive).
Still for that read-out and setting: with `C#C[C@]1(O)CC[C@H]2[C@@H]3CCC4=C/C(=N/NC(=O)c5cccc6cc7ccccc7nc56)CC[C@@H]4[C@H]3CC[C@@]21CC` the figure was 94 µM (inactive).
In the case of `Cc1ccc(C2=Nc3cccc4cccc(c34)N2)cc1`, the GI50 in test [1] was > 100 µM (inactive).
In the case of `COc1c(O)cc(O)c2c(=O)cc(-c3ccccc3)oc12` [WOGONIN], the GI50 in test [1] was 18.7 µM (inactive).
On the same count and under the same terms, with `COc1cc2c(cc1OC)C(=O)/C(=C/c1cc(C)c(O)c(C)c1)C2` the figure was < 0.01 µM (active).
As to `COc1cc2c(cc1OCCCCCCCCN1C(=O)c3cccc4cccc(c34)C1=O)N=C[C@@H]1CCCN1C2=O`, the GI50 in test [1] was 22.1 µM (inactive).
For `CCOC(=O)C1=C(Nc2ccc(Cl)cc2Cl)OC/C1=N\NS(=O)(=O)c1ccc(C)cc1`, the GI50 in test [2], in test [8], in test [5], in test [6], in test [3] and in test [7] was > 100 µM (inactive) throughout.
As to `C/C(=N\NS(=O)(=O)c1ccc(C)cc1)P(=O)(O)O`, in test [1], the GI50 was > 100 µM (inactive).
With `COC1/C(=C\c2ccccc2I)c2ccccc2N1C(C)=O` (stereo not given), the GI50 in test [2] was 15.5 µM (inactive); in test [8] it was 17 µM (inactive); in test [5] it was 11.7 µM (inactive); in test [6] it was 19 µM (inactive); in test [3] it was 19.6 µM (inactive); in test [7] it was 25.2 µM (inactive).
Consider `O=C1C(Cl)=C(N2C(=O)CCCC2=O)C(=O)c2ccccc21`, for which the GI50 in test [1] is 31.2 µM (inactive).
As for `CC(=O)C(=Cc1cn(C)c(=O)n(C)c1=O)C(C)=O`, the GI50 in test [2] was 94.8 µM (inactive); in test [8] it was 88.9 µM (inactive); in test [5], 98.6 µM (inactive); in test [6], 160 µM (inactive); in test [3] it was 109 µM (inactive); in test [7], 214 µM (inactive). The GI50 in test [4] was 37.8 µM (inactive).
On to `C=CCC1(C(=O)OC)CCC/C(=N\O)C1` (stereo not given), for which, in test [1], the GI50 was > 10 µM (inactive).
`COC(=O)C1CCC[C@H]2C(CO)=C(C)C(=O)[C@@H]12` (stereo not given in full): the GI50 in test [2], in test [8], in test [5], in test [6], in test [7] and in test [4] was > 100 µM (inactive) in each case.
Consider `COc1ccc2[nH]cc(CCNC(=O)[C@H](Cc3ccccc3)NC(=O)[C@@H](NCC(F)(F)F)C(C)C)c2c1`, for which the GI50 in test [1] was 18.6 µM (inactive).
Take `O=C(O)/C=C/c1ccncc1`: the GI50 in test [2], in test [8], in test [5], in test [3], in test [7] and in test [4] was > 100 µM (inactive) throughout.
Consider `NCCSc1nc2ccccc2s1`, for which the GI50 in test [1] is 32.1 µM (inactive).
For `C#C[C@]1(O)CC[C@H]2[C@@H]3CCC4=C/C(=N\OCCN(CC)CC)CC[C@]4(C)[C@H]3CC[C@@]21C`, in test [1], the GI50 was 3.18 µM (inactive).
Same read-out and setting: with `COC(=O)C(COC(C)=O)NC(=O)/C=C/c1ccc(O)c(OC(C)=O)c1` (stereo not given) the figure was > 100 µM (inactive); with `COc1ccc(C(C#N)NCCCCCCNC(C#N)c2ccc(OC)cc2)cc1` (stereo not given), > 100 µM (inactive).
On the same count and under the same terms, to `CC(C)(Cl)C(Br)CC/C(CBr)=C(/Cl)CCl.CC(C)(Cl)C(Br)CC/C(CBr)=C(\Cl)CCl` (stereo not given) belongs 3.22 µM (inactive); to `CC(C)(C)NC(=O)CCC1C(C(=O)NC(C)(C)C)C2(Cl)C(Cl)=C(Cl)C1(Cl)C2(Cl)Cl` (stereo not given), > 100 µM (inactive).
For `C[N+](C)(CCNC(=O)c1cccc2cc3ccccc3nc12)Cc1ccc([N+](=O)[O-])s1`, the GI50 in test [1] was > 25 µM (inactive).
Turning to `COc1ccc2oc(=O)c(-c3cc4c(c(C)n3)c(=O)oc3ccc(OC)cc34)cc2c1`, in test [1], the GI50 was 27.4 µM (inactive).
Consider `O=C(/C=C1\C[C@H]2C=Nc3ccccc3C(=O)N2C1)NCCCCCNC(=O)/C=C1\C[C@H]2C=Nc3ccccc3C(=O)N2C1`, for which, in test [1], the GI50 was 22.6 µM (inactive).
For the molecule `COC(=O)c1c2c(cc3c1CC1(Cc4cc5c(c(C)c4C1)CCC5)C3)CCC2` (stereo not given), the GI50 in test [1] was > 100 µM (inactive).
The same measure, in the same setting: with `CC1(c2cccc(Cl)c2)CC(c2cccc(Cl)c2)=C(C#N)C(=C(C#N)C#N)N1` (stereo not given) the figure was 9.75 µM (inactive).
On to `N#Cc1c(-c2ccccc2)cc(-c2ccccc2)n(C2OCC(O)C(O)C2O)c1=S` (stereo not given), for which the GI50 in test [1] is 29.6 µM (inactive).
For `CC1=C[P+](c2ccccc2)(c2ccccc2)c2ccccc2O1`, the GI50 in test [1] was 2.53 µM (inactive).
Turning to `O=C(N[C@@H](c1ccccc1)[C@@H](O)C(=O)OCc1ccc2c(c1)OCO2)c1ccccc1`, the GI50 in test [2], in test [8], in test [5], in test [6], in test [3] and in test [7] was > 100 µM (inactive) in each case. Besides, the GI50 in test [4] is > 76.2 µM (inactive).
In the case of `N=C(N)SCC(=O)O`, in test [1], the GI50 was > 100 µM (inactive).
`OCC(O)C(O)C(O)C(/C=N\Nc1ncnc2ccc(Br)cc12)=N/Nc1ncnc2ccc(Br)cc12` (stereo not given): the GI50 in test [1] is > 100 µM (inactive).
For `O=C1OC(c2ccccc2)=N/C1=C/c1cccs1`, the GI50 in test [1] was 87.1 µM (inactive).
On the same count and under the same terms, with `COn1cc(CO)c2ccccc21` the figure was > 68.7 µM (inactive).
On to `CCCCCCCCOC(CO)CO`, for which the GI50 in test [2], in test [8], in test [5], in test [6] and in test [3] was > 100 µM (inactive) throughout.
In the case of `CS/C(=N\C(=S)N(C)C)N(c1ccccc1)c1nc(N(C)C)s[s+]1`, the GI50 in test [8] was 0.708 µM (active); in test [5] it was 3.52 µM (inactive); in test [3], 3.18 µM (inactive); in test [7] it was 16.9 µM (inactive).
With `COc1ccc(NC(C)=O)c(C(=O)CCNC(C)=O)c1`, in test [1], the GI50 was > 100 µM (inactive).
As to `CC1C(=O)CC(c2cccs2)N(N=O)C1c1cccs1` (stereo not given), the GI50 in test [2] is 70.3 µM (inactive); in test [5], 38.5 µM (inactive); in test [6] it was 75.2 µM (inactive); in test [3], 47.8 µM (inactive); in test [7], 35.7 µM (inactive); in test [4], 3.08 µM (inactive).
As to `O=C1NCC2(CCNCC2)N1`, in test [1], the GI50 was > 100 µM (inactive).
Take `C/C=C1\CC(C(=O)OCC)CCCCCCC1=O` (stereo not given): the GI50 in test [1] is > 100 µM (inactive).
As for `CCOC(=O)C1c2[nH]c3ccccc3c2CCN1C(=O)c1ccc(OC)o1` (stereo not given), the GI50 in test [1] was > 10 µM (inactive).
On to `COc1ccccc1CNCCCCCNCCCCCCCCCCNCCCCCNCc1ccccc1OC`, for which the GI50 in test [1] is 1.05 µM (active).
The same measure, in the same setting: to `O=C(c1ccccc1)C1C[C@H]2CO[C@H](c3ccccc3)N2C1=O` (stereo not given in full) belongs > 100 µM (inactive); to `CN(CC(=O)Nc1ccccc1C(=O)O)c1ccccc1`, > 100 µM (inactive); to `Cc1ccc(S(=O)(=O)NC(=O)Nc2ccc(C(=O)O)cc2)cc1`, > 100 µM (inactive).
Same read-out and setting: with `O=CNNC(=O)CSc1nc2ccc(I)cc2c(=O)n1Cc1ccccc1` the figure was 34 µM (inactive); with `Cn1c(=O)c2c(nc3sc4c(n32)C(=O)c2c(O)ccc(O)c2C4=O)n(C)c1=O`, 16.3 µM (inactive).
Take `CCCCCCc1cn([C@H]2C[C@H](O)[C@@H](CO)O2)c(=O)[nH]c1=O`: the GI50 in test [2], in test [8], in test [5], in test [6], in test [3] and in test [7] was > 100 µM (inactive) in each case. In test [4], the GI50 is > 100 µM (inactive).
